Here are results for eleven compounds from PubChem BioAssay AID1259407 (Chemical Carcinogenesis Research Information System (CCRIS), 2018).

The data set relates to CCRIS mutagenicity, Ames/micronucleus/aberration tests. In words: CCRIS mutagenicity studies.
Setting [1] is: Test System: AMES SALMONELLA TYPHIMURIUM, Strain/Indicator: TA100, Metabolic Activation: NONE.
Where [2] appears, read: Test System: AMES SALMONELLA TYPHIMURIUM, Strain/Indicator: TA100, Metabolic Activation: NONE, Method: STANDARD PLATE.
The mark [3] stands for this setting: Test System: AMES SALMONELLA TYPHIMURIUM, Strain/Indicator: TA98, Metabolic Activation: HAMSTER, LIVER, S-9, AROCLOR 1254 (30%), Method: PREINCUBATION
[4] abbreviates: Test System: AMES SALMONELLA TYPHIMURIUM, Strain/Indicator: TA98, Metabolic Activation: NONE, Method: PREINCUBATION
The mark [5] stands for this setting: Test System: AMES SALMONELLA TYPHIMURIUM, Strain/Indicator: TA98, Metabolic Activation: RAT, LIVER, S-9, AROCLOR 1254 (30%), Method: PREINCUBATION
Setting [6] is: Test System: AMES SALMONELLA TYPHIMURIUM, Strain/Indicator: TA100, Metabolic Activation: NONE, Method: PREINCUBATION
Setting [7] is: Test System: AMES SALMONELLA TYPHIMURIUM, Strain/Indicator: TA98, Metabolic Activation: RAT, LIVER, S-9, AROCLOR 1254, Method: PREINCUBATION
The mark [8] stands for this setting: Test System: AMES SALMONELLA TYPHIMURIUM, Strain/Indicator: TA98, Metabolic Activation: RAT, LIVER, S-9, AROCLOR 1254, Method: STANDARD PLATE.
The mark [9] stands for this setting: Test System: AMES SALMONELLA TYPHIMURIUM, Strain/Indicator: TA100, Metabolic Activation: RAT, LIVER, S-9, AROCLOR 1254, Method: STANDARD PLATE.
Where [10] appears, read: Test System: AMES SALMONELLA TYPHIMURIUM, Strain/Indicator: TA1535, Metabolic Activation: NONE, Method: STANDARD PLATE.
Setting [11] is: Test System: AMES SALMONELLA TYPHIMURIUM, Strain/Indicator: TA1535, Metabolic Activation: RAT, LIVER, S-9, AROCLOR 1254, Method: STANDARD PLATE.
[12] abbreviates: Test System: AMES SALMONELLA TYPHIMURIUM, Strain/Indicator: TA1537, Metabolic Activation: NONE, Method: STANDARD PLATE.
The mark [13] stands for this setting: Test System: AMES SALMONELLA TYPHIMURIUM, Strain/Indicator: TA1537, Metabolic Activation: RAT, LIVER, S-9, AROCLOR 1254, Method: STANDARD PLATE.

The structures appear in SMILES notation. Activity calls are given as the source filed them. No rule for the calls is given here.

For `Cc1cc2c(N3CCCC3)nc(N3CCCC3)nc2n1C`, under “Test System: UDS RAT HEPATOCYTES, Strain/Indicator: THY-INCORP, Metabolic Activation: NONE, Method: AUTORADIOGRAPHY”, the mutagenic call was “active; positive”.

`c1ccc([C@@H]2CO2)cc1`: the mutagenic call runs as follows: under setting [1], “active; positive”; under setting [2], “active; positive”.

On to `Oc1ccc(Cl)cc1Cc1cc(Cl)ccc1O`, for which the mutagenic call was “inactive; negative” under setting [3]; “inactive; negative” under setting [4]; “inactive; negative” under setting [5]; “inactive; negative” under setting [6]; “inactive; negative” (Test System: AMES SALMONELLA TYPHIMURIUM, Strain/Indicator: TA1535, Metabolic Activation: HAMSTER, LIVER, S-9, AROCLOR 1254 (30%), Method: PREINCUBATION).

On to `C[C@H]1[C@H](O)CCC2=CC(=O)[C@]3([C@@]4(CO)CO4)O[C@@H]3[C@@]21C`, for which the mutagenic call is, setting by setting: under setting [2], “active; positive”; (Test System: E. COLI, Strain/Indicator: WP2 UVRA, Metabolic Activation: NONE, Method: STANDARD PLATE) “active; positive”.

In the case of `O=[N+]([O-])c1ccc2c(c1)Cc1cccc([N+](=O)[O-])c1-2`, the mutagenic call by setting is: under setting [3], “active; positive”; under setting [4], “active; positive”; under setting [5], “active; positive”; (Test System: AMES SALMONELLA TYPHIMURIUM, Strain/Indicator: TA100, Metabolic Activation: HAMSTER, LIVER, S-9, AROCLOR 1254 (30%), Method: PREINCUBATION) “active; positive”; under setting [6], “active; positive”; (Test System: AMES SALMONELLA TYPHIMURIUM, Strain/Indicator: TA100, Metabolic Activation: RAT, LIVER, S-9, AROCLOR 1254 (30%), Method: PREINCUBATION) “active; positive”.

With `CC(=O)Nc1ccc(Nc2ccc([N+](=O)[O-])cc2)cc1`, the mutagenic call was “inactive; negative” (Test System: AMES SALMONELLA TYPHIMURIUM, Strain/Indicator: TA98(NR), Metabolic Activation: NONE, Method: PREINCUBATION); “active; positive” under setting [4]; “active; positive” under setting [7].

Take `O=c1oc2ccccc2c(O)c1C1CCCc2ccccc21` (stereo not drawn): the mutagenic call (Test System: AMES SALMONELLA TYPHIMURIUM, Strain/Indicator: TA97, Metabolic Activation: NONE) was “inactive; negative”; the mutagenic call (Test System: AMES SALMONELLA TYPHIMURIUM, Strain/Indicator: TA97, Metabolic Activation: S-9) is “inactive; negative”; the mutagenic call (Test System: AMES SALMONELLA TYPHIMURIUM, Strain/Indicator: TA98, Metabolic Activation: NONE) is “inactive; negative”; the mutagenic call (Test System: AMES SALMONELLA TYPHIMURIUM, Strain/Indicator: TA98, Metabolic Activation: S-9) is “inactive; negative”; the mutagenic call under setting [1] was “inactive; negative”; the mutagenic call (Test System: AMES SALMONELLA TYPHIMURIUM, Strain/Indicator: TA100, Metabolic Activation: S-9) was “inactive; negative”. Also, the mutagenic call is “inactive; negative” (Test System: AMES SALMONELLA TYPHIMURIUM, Strain/Indicator: TA102, Metabolic Activation: NONE) and “inactive; negative” (Test System: AMES SALMONELLA TYPHIMURIUM, Strain/Indicator: TA102, Metabolic Activation: S-9).

On to `O=C(O)c1cc(Br)cc2cccnc12`, for which the mutagenic call is, setting by setting: (Test System: AMES SALMONELLA TYPHIMURIUM, Strain/Indicator: TA98, Metabolic Activation: NONE, Method: STANDARD PLATE) “inactive; negative”; under setting [8], “inactive; negative”; under setting [2], “inactive; negative”; under setting [9], “inactive; negative”; under setting [10], “inactive; negative”; under setting [11], “inactive; negative”. Moreover, the mutagenic call runs as follows: under setting [12], “inactive; negative”; under setting [13], “inactive; negative”.

On to `Nc1ccc(O)c2c1C(=O)c1ccccc1C2=O`, for which the mutagenic call was “inactive; negative” under setting [8]; “inactive; negative” under setting [2]; “inactive; negative” under setting [9]; “inactive; negative” under setting [10]; “inactive; negative” under setting [11]; “active; positive” under setting [12]. For the same compound, the mutagenic call was “active; positive” under setting [13] and “inactive; negative” (Test System: AMES SALMONELLA TYPHIMURIUM, Strain/Indicator: TA1538, Metabolic Activation: RAT, LIVER, S-9, AROCLOR 1254, Method: STANDARD PLATE).

As to `O=[N+]([O-])c1cc(-c2ccccc2)ccc1O`, under setting [4], the mutagenic call was “inactive; negative”.

As for `CC(C)NCC(O)c1ccc(O)c(O)c1` (stereo not drawn), the mutagenic call is “inactive; negative” (End Point: IN VITRO CHROMOSOMAL ABERRATIONS, Test System: CHINESE HAMSTER OVARY CELLS, Metabolic Activation: NONE); “active; positive” (End Point: IN VITRO CHROMOSOMAL ABERRATIONS, Test System: CHINESE HAMSTER OVARY CELLS, Metabolic Activation: RAT, LIVER, S-9, AROCLOR 1254); “inactive; negative” (Test System: AMES SALMONELLA TYPHIMURIUM, Strain/Indicator: TA98, Metabolic Activation: HAMSTER, LIVER, S-9, AROCLOR 1254, Method: PREINCUBATION); “inactive; negative” under setting [4]; “inactive; negative” under setting [7]; “inactive; negative” (Test System: AMES SALMONELLA TYPHIMURIUM, Strain/Indicator: TA100, Metabolic Activation: HAMSTER, LIVER, S-9, AROCLOR 1254, Method: PREINCUBATION). For the same compound, the mutagenic call by setting is: under setting [6], “inactive; negative”; (Test System: AMES SALMONELLA TYPHIMURIUM, Strain/Indicator: TA100, Metabolic Activation: RAT, LIVER, S-9, AROCLOR 1254, Method: PREINCUBATION) “inactive; negative”; (Test System: AMES SALMONELLA TYPHIMURIUM, Strain/Indicator: TA1535, Metabolic Activation: HAMSTER, LIVER, S-9, AROCLOR 1254, Method: PREINCUBATION) “inactive; negative”; (Test System: AMES SALMONELLA TYPHIMURIUM, Strain/Indicator: TA1535, Metabolic Activation: NONE, Method: PREINCUBATION) “inactive; negative”; (Test System: AMES SALMONELLA TYPHIMURIUM, Strain/Indicator: TA1535, Metabolic Activation: RAT, LIVER, S-9, AROCLOR 1254, Method: PREINCUBATION) “inactive; negative”; (Test System: AMES SALMONELLA TYPHIMURIUM, Strain/Indicator: TA1537, Metabolic Activation: HAMSTER, LIVER, S-9, AROCLOR 1254, Method: PREINCUBATION) “inactive; negative”. The mutagenic call (Test System: AMES SALMONELLA TYPHIMURIUM, Strain/Indicator: TA1537, Metabolic Activation: NONE, Method: PREINCUBATION) was “inactive; negative” and the mutagenic call (Test System: AMES SALMONELLA TYPHIMURIUM, Strain/Indicator: TA1537, Metabolic Activation: RAT, LIVER, S-9, AROCLOR 1254, Method: PREINCUBATION) is “inactive; negative”.
